Biological target: T1, Human BCL-XL protein (N-terminal HiBiT tagged BCL-XL in HT1080 cells) (Homo sapiens, UniProt Q07817)
T1 construct: expressed in transfected cells; host or cells: HT-1080 (ATCC CCL-121), stably transduced with lentivirus pLV-UBC-N-HiBiT-BCL-XL-PGK-puro and selected with puromycin
Assay: HiBiT based degradation assay
Type: cell-based
Conditions: HT1080 cells expressing N-terminal HiBiT tagged BCL-XL, normalized with DMSO control
Source text: HiBiT Based Degradation Assay
Human BCL-XL protein coding open reading frame fused with N-terminal HiBiT coding sequence was synthesized from Integrated DNA Technologies (IDT). Next, N-HiBiT-BCL-XL sequence was cloned into pLV-UBC-PGK-Puro, a lentivirus plasmid purchased from Vectorbuilder, to generate pLV-UBC-N-HiBiT-BCL-XL-PGK-puro. Lentiviral particles were generated from Lenti-X™ 293T cells (Clontech) by co-transfection of pLV-UBC-N-HiBiT-BCL-XL-PGK-puro plasmids and lentiviral packaging plasmid mix (Cellecta). HT-1080 [HT1080](ATCC CCL-121) cells were infected with the lentivirus, and HT1080 cells stably integrated with the lentiviral vectors were established by incubation with 1 μg/mL puromycin (Thermofisher).
HT1080 cells expressing N-terminal HiBiT tagged BCL-XL were dispensed into a 384-well plate pre-spotted with compounds at varying concentrations. Three thousand cells were seeded into each well in 40 μL of RPMI 1640 media. […] After incubation, luminescence was read on a PHERAstar FSX Plate Reader (BMG). BCL-XL degradation at each indicated concentration was normalized with the DMSO control. The BCL-XL degradation curves were plotted using a four-parameter logistic model. For compounds displaying hook effects, the curve fitting was performed using the bottom point of the hook curves (i.e., the point of Ymin) as the bottom plateau to calculate EC50.

T1 sequence (Q07817 whole entry): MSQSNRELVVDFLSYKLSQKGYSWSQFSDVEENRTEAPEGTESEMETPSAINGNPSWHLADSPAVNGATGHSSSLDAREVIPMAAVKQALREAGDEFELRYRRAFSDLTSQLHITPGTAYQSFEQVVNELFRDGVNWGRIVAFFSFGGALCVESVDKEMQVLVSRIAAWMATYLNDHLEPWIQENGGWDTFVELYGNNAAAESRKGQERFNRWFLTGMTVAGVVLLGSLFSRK

SMILES | Ymin (6 h) | Ymin (24 h)
Cc1ncsc1-c1ccc([C@H](C)NC(=O)[C@@H]2C[C@@H](O)CN2C(=O)[C@@H](NC(=O)CCCCCCCn2nc(C)c(-c3ccc(N4CCc5cccc(C(=O)Nc6nc7ccccc7s6)c5C4)nc3C(=O)O)c2C)C(C)(C)C)cc1 [Compound 103a, 6-[8-(1,3-benzothiazol-2-ylcarbamoyl)-3,4-dihydro-1H-isoquinolin-2-yl]-3-[1-[8-[[(1S)-1-[(2S,4R)-4-hydroxy-2-[[(1S)-1-[4-(4-methylthiazol-5-yl)phenyl]ethyl]carbamoyl]pyrrolidine-1-carbonyl]-2,2-dimethyl-propyl]amino]-8-oxo-octyl]-3,5-dimethyl-pyrazol-4-yl]pyridine-2-carboxylic acid] | A (Ymin < 50%) | –
Cc1ncsc1-c1ccc([C@H](C)NC(=O)[C@@H]2C[C@@H](O)CN2C(=O)[C@@H](NC(=O)CC[C@H](C)c2ccc(Oc3cccc(-c4ccc(N5CCc6cccc(C(=O)Nc7nc8ccccc8s7)c6C5)nc4C(=O)O)c3C)cc2)C(C)(C)C)cc1 (single isomer, unassigned) [Compound 129a] | – | A (Ymin < 50%)
Cc1ncsc1-c1ccc([C@H](C)NC(=O)[C@@H]2C[C@@H](O)CN2C(=O)[C@@H](NC(=O)CCCCCCOc2cccc(-c3ccc(N4CCc5cccc(C(=O)Nc6nc7ccccc7s6)c5C4)nc3C(=O)O)c2C)C(C)(C)C)cc1 [Compound 106a, 6-(8-(benzo[d]thiazol-2-ylcarbamoyl)-3,4-dihydroisoquinolin-2(1H)-yl)-3-(3-((7-(((S)-1-((2S,4R)-4-hydroxy-2-(((S)-1-(4-(4-methylthiazol-5-yl)phenyl)ethyl)carbamoyl)pyrrolidin-1-yl)-3,3-dimethyl-1-oxobutan-2-yl)amino)-7-oxoheptyl)oxy)-2-methylphenyl)picolinic acid] | A (Ymin < 50%) | A (Ymin < 50%)
Cc1ncsc1-c1ccc([C@H](C)NC(=O)[C@@H]2C[C@@H](O)CN2C(=O)[C@@H](NC(=O)[C@@H](C)CCc2ccc(Oc3cccc(-c4ccc(N5CCc6cccc(C(=O)Nc7nc8ccccc8s7)c6C5)nc4C(=O)O)c3C)cc2)C(C)(C)C)cc1 (single isomer, unassigned) [Compound 143b] | – | A (Ymin < 50%)
Cc1ncsc1-c1ccc([C@@H](NC(=O)[C@@H]2C[C@@H](O)CN2C(=O)[C@@H](NC(=O)C[C@H]2CC[C@H](Oc3cccc(-c4ccc(N5CCc6cccc(C(=O)Nc7nc8ccccc8s7)c6C5)nc4C(=O)O)c3C)CC2)C(C)(C)C)C(F)(F)F)cc1 [Compound 125a, 6-(8-(benzo[d]thiazol-2-ylcarbamoyl)-3,4-dihydroisoquinolin-2 (1H)-yl)-3-(3-(((1S,4r)-4-(2-(((S)-1-((2S,4R)-4-hydroxy-2-(((R)-2,2,2-trifluoro-1-(4-(4-methylthiazol-5-yl)phenyl)ethyl)carbamoyl)pyrrolidin-1-yl)-3,3-dimethyl-1-oxobutan-2-yl)amino)-2-oxoethyl)cyclohexyl)oxy)-2-methylphenyl)picolinic acid] | – | A (Ymin < 50%)

The remaining lines, values ahead:

Ymin (6 h) | Ymin (24 h) | SMILES
A (Ymin < 50%) | A (Ymin < 50%) | Cc1ncsc1-c1ccc([C@H](C)NC(=O)[C@@H]2C[C@@H](O)CN2C(=O)[C@@H](NC(=O)CCCCCOc2cccc(-c3ccc(N4CCc5cccc(C(=O)Nc6nc7ccccc7s6)c5C4)nc3C(=O)O)c2C)C(C)(C)C)cc1 [Compound 105a, 6-(8-(Benzo[d]thiazol-2-ylcarbamoyl)-3,4-dihydroisoquinolin-2(1H)-yl)-3-(3-((6-(((S)-1-((2S,4R)-4-hydroxy-2-(((S)-1-(4-(4-methylthiazol-5-yl)phenyl)ethyl)carbamoyl)pyrrolidin-1-yl)-3,3-dimethyl-1-oxobutan-2-yl)amino)-6-oxohexyl)oxy)-2-methylphenyl)picolinic acid]
– | A (Ymin < 50%) | Cc1ncsc1-c1ccc([C@H](C)NC(=O)[C@@H]2C[C@@H](O)CN2C(=O)[C@@H](NC(=O)CC(C)Cc2ccc(Oc3cccc(-c4ccc(N5CCc6cccc(C(=O)Nc7nc8ccccc8s7)c6C5)nc4C(=O)O)c3C)cc2)C(C)(C)C)cc1 (single isomer, unassigned) [Compound 134b, 6-(8-(benzo[d]thiazol-2-ylcarbamoyl)-3,4-dihydroisoquinolin-2(1H)-yl)-3-(3-(4-((R*)-4-(((S)-1-((2S,4R)-4-hydroxy-2-(((S)-1-(4-(4-methylthiazol-5-yl)phenyl)ethyl)carbamoyl)pyrrolidin-1-yl)-3,3-dimethyl-1-oxobutan-2-yl)amino)-2-methyl-4-oxobutyl)phenoxy)-2-methylphenyl)picolinic acid]
– | A (Ymin < 50%) | Cc1ncsc1-c1ccc([C@H](C)NC(=O)[C@@H]2C[C@@H](O)CN2C(=O)[C@@H](NC(=O)CN2CCC(COc3cccc(-c4ccc(N5CCc6cccc(C(=O)Nc7nc8ccccc8s7)c6C5)nc4C(=O)O)c3C)CC2)C(C)(C)C)cc1 [Compound 127a, 6-[8-(1,3-benzothiazol-2-ylcarbamoyl)-3,4-dihydro-1H-isoquinolin-2-yl]-3-[3-[[1-[2-[[(1S)-1-[(2S,4R)-4-hydroxy-2-[[(1S)-1-[4-(4-methylthiazol-5-yl)phenyl]ethyl]carbamoyl]pyrrolidine-1-carbonyl]-2,2-dimethyl-propyl]amino]-2-oxo-ethyl]-4-piperidyl]methoxy]-2-methyl-phenyl]pyridine-2-carboxylic acid]
– | B (50% ≤ Ymin < 70%) | Cc1ncsc1-c1ccc([C@H](C)NC(=O)[C@@H]2C[C@@H](O)CN2C(=O)[C@@H](NC(=O)CN2CCC(Oc3cccc(-c4ccc(N5CCc6cccc(C(=O)Nc7nc8ccccc8s7)c6C5)nc4C(=O)O)c3C)CC2)C(C)(C)C)cc1 [Compound 122a, 6-[8-(1,3-benzothiazol-2-ylcarbamoyl)-3,4-dihydro-1H-isoquinolin-2-yl]-3-[3-[[1-[2-[[(1S)-1-[(2S,4R)-4-hydroxy-2-[[(1S)-1-[4-(4-methylthiazol-5-yl)phenyl]ethyl]carbamoyl]pyrrolidine-1-carbonyl]-2,2-dimethyl-propyl]amino]-2-oxo-ethyl]-4-piperidyl]oxy]-2-methyl-phenyl]pyridine-2-carboxylic acid]
– | A (Ymin < 50%) | Cc1ncsc1-c1ccc([C@H](C)NC(=O)[C@@H]2C[C@@H](O)CN2C(=O)[C@@H](NC(=O)C[C@@H](C)Cc2ccc(Oc3cccc(-c4ccc(N5CCc6cccc(C(=O)Nc7nc8ccccc8s7)c6C5)nc4C(=O)O)c3C)cc2)C(C)(C)C)cc1 (relative stereo) [Compound 134a, 6-[8-(1,3-benzothiazol-2-ylcarbamoyl)-3,4-dihydro-1H-isoquinolin-2-yl]-3-[3-[4-[(2S)-4-[[(1S)-1-[(2S,4R)-4-hydroxy-2-[[(1S)-1-[4-(4-methylthiazol-5-yl)phenyl]ethyl]carbamoyl]pyrrolidine-1-carbonyl]-2,2-dimethyl-propyl]amino]-2-methyl-4-oxo-butyl]phenoxy]-2-methyl-phenyl]pyridine-2-carboxylic acid]

Reference: patent US20250288683A1, “TETRAHYDROISOQUINOLINE HETEROBIFUNCTIONAL BCL-XL DEGRADERS” (Treeline Biosciences, Inc., priority 2022, published 2025)
